Marks after values point to notes of the source that are not given here.
System: Sprague-Dawley rats
Assay: Embryo-fetal developmental toxicity study in Sprague-Dawley rats (Example 3)
Details: for Discharge, Brown, Vulva, times observed/animals / Discharge, Red, Vulva, times observed/animals / Ear/portion of ear missing, Ear/left, times observed/animals / Hair sparse, Abdominal region, times observed/animals / Hair sparse, Cervical region, times observed/animals / Hair sparse, Forefoot/left, times observed/animals / Hair sparse, Forefoot/right, times observed/animals / Hair sparse, Forelimb/left, times observed/animals / Hair sparse, Forelimb/right, times observed/animals / Hair sparse, Hind limb/left, times observed/animals / Hair sparse, Hind limb/right, times observed/animals / Hair sparse, Lumbar region, times observed/animals / Hair sparse, Thoracic region, times observed/animals / Scabbed area, Face, times observed/animals / Scabbed area, Forelimb/right, times observed/animals / Scabbed area, Tail, times observed/animals / Scabbed area, Thoracic region, times observed/animals / Tail missing - portion, times observed/animals: GD 6-20
Description: For this study, a total of 140 time-mated female rats (approximately 8 to 10 weeks of age) were obtained from Charles River Laboratories, Raleigh, North Carolina, and acclimated from the time of arrival until the time of dosing on GD 6. During the acclimation period, the animals were observed twice daily with respect to general health and any signs of disease. All animals were given a detailed clinical examination and body weights were recorded prior to selection. […] Food consumption was collected during the acclimation period.
Animals received in-life and postmorten evaluations. […] All fetuses were given an external and visceral or skeletal examination.
Detailed clinical observations were made daily from GD 6 through 20 (4 hours±1 hour postdose on dosing days).
Food consumption for main study animals was measured and recorded on the corresponding body weight days and calculated for the same intervals.
The placentae were examined grossly.
The foci, if detected, were considered early resorptions, and data from this female were included in mean calculations

CC(C)NC(=O)COc1cccc(-c2nc(Nc3ccc4[nH]ncc4c3)c3ccccc3n2)c1 [belumosudil, 2-{3-[4-(1H-indazol-5-ylamino)-2-quinazolinyl]phenoxy}-N-(propan-2-yl) acetamide]
Maternal Body Weight GD 20 (50 mg base/kg/day): 335.2^b g | Maternal Food Consumption GD 6-9 (50 mg base/kg/day): 15.5^b | Maternal Food Consumption GD 6-18 (50 mg base/kg/day): 20.0^b | Maternal Food Consumption GD 6-20 (50 mg base/kg/day): 21.3^b | Maternal Food Consumption GD 18-20 (50 mg base/kg/day): 29.0 | Mean Fetal Body Weight Females (50 mg base/kg/day): 3.94 g | Mean Fetal Body Weight Genders Combined (50 mg base/kg/day): 4.06 g | Mean Fetal Body Weight Males (50 mg base/kg/day): 4.19 g | Adjusted Final Body Weight, Mean (50 mg base/kg/day (N = 25)): 266.4^b g | Adjusted Weight Change From Day 6, Mean (50 mg base/kg/day (N = 25)): 47.1^b | Final Body Weight, Mean (50 mg base/kg/day (N = 25)): 335.2^b g | Gravid Uterine Weight, Mean (50 mg base/kg/day (N = 25)): 68.8 g | Discharge, Brown, Vulva, times observed/animals (50 mg base/kg/day): 1/1 | Discharge, Red, Vulva, times observed/animals (50 mg base/kg/day): 4/4 | Ear/portion of ear missing, Ear/left, times observed/animals (50 mg base/kg/day): 0/0 | Hair sparse, Abdominal region, times observed/animals (50 mg base/kg/day): 0/0 | Hair sparse, Cervical region, times observed/animals (50 mg base/kg/day): 8/1 | Hair sparse, Forefoot/left, times observed/animals (50 mg base/kg/day): 0/0 | Hair sparse, Forefoot/right, times observed/animals (50 mg base/kg/day): 0/0 | Hair sparse, Forelimb/left, times observed/animals (50 mg base/kg/day): 10/2 | Hair sparse, Forelimb/right, times observed/animals (50 mg base/kg/day): 10/2 | Hair sparse, Hind limb/left, times observed/animals (50 mg base/kg/day): 0/0 | Hair sparse, Hind limb/right, times observed/animals (50 mg base/kg/day): 0/0 | Hair sparse, Lumbar region, times observed/animals (50 mg base/kg/day): 0/0 | Hair sparse, Thoracic region, times observed/animals (50 mg base/kg/day): 7/1 | Scabbed area, Face, times observed/animals (50 mg base/kg/day): 0/0 | Scabbed area, Forelimb/right, times observed/animals (50 mg base/kg/day): 0/0 | Scabbed area, Tail, times observed/animals (50 mg base/kg/day): 0/0 | Scabbed area, Thoracic region, times observed/animals (50 mg base/kg/day): 0/0 | Tail missing - portion, times observed/animals (50 mg base/kg/day): 0/0 | Fetal Body Weight Females, % Difference From Control (150 mg base/kg/day): −7.7% | Fetal Body Weight Genders Combined, % Difference From Control (150 mg base/kg/day): −7.3% | Fetal Body Weight Males, % Difference From Control (150 mg base/kg/day): −8.0% | Maternal Body Weight Change GD 6-9 (150 mg base/kg/day): −4.2^b g | Maternal Body Weight Change GD 6-18 (150 mg base/kg/day): 55.4^b g | Maternal Body Weight Change GD 6-20 (150 mg base/kg/day): 97.1^b g | Maternal Body Weight Change GD 18-20 (150 mg base/kg/day): 41.8^b g | Maternal Body Weight GD 9 (150 mg base/kg/day): 215.8^b g | Maternal Body Weight GD 12 (150 mg base/kg/day): 232.1^b g | Maternal Body Weight GD 15 (150 mg base/kg/day): 244.0^b g | Maternal Body Weight GD 18 (150 mg base/kg/day): 275.3^b g | Maternal Body Weight GD 20 (150 mg base/kg/day): 317.0^b g | Maternal Food Consumption GD 6-9 (150 mg base/kg/day): 10.0^b | Maternal Food Consumption GD 6-18 (150 mg base/kg/day): 15.4^b | Maternal Food Consumption GD 6-20 (150 mg base/kg/day): 17.4^b | Maternal Food Consumption GD 18-20 (150 mg base/kg/day): 29.4 | Mean Fetal Body Weight Females (150 mg base/kg/day): 3.72 g | Mean Fetal Body Weight Genders Combined (150 mg base/kg/day): 3.82 g | Mean Fetal Body Weight Males (150 mg base/kg/day): 3.91 g | Adjusted Final Body Weight, Mean (150 mg base/kg/day (N = 20)): 252.7^b g | Adjusted Weight Change From Day 6, Mean (150 mg base/kg/day (N = 20)): 32.8^b | Final Body Weight, Mean (150 mg base/kg/day (N = 20)): 317.0^b g | Gravid Uterine Weight, Mean (150 mg base/kg/day (N = 20)): 64.3 g | Discharge, Brown, Vulva, times observed/animals (150 mg base/kg/day): 4/4 | Discharge, Red, Vulva, times observed/animals (150 mg base/kg/day): 1/1 | Ear/portion of ear missing, Ear/left, times observed/animals (150 mg base/kg/day): 15/1 | Hair sparse, Abdominal region, times observed/animals (150 mg base/kg/day): 0/0 | Hair sparse, Cervical region, times observed/animals (150 mg base/kg/day): 0/0 | Hair sparse, Forefoot/left, times observed/animals (150 mg base/kg/day): 27/3 | Hair sparse, Forefoot/right, times observed/animals (150 mg base/kg/day): 23/3 | Hair sparse, Forelimb/left, times observed/animals (150 mg base/kg/day): 14/2 | Hair sparse, Forelimb/right, times observed/animals (150 mg base/kg/day): 30/3 | Hair sparse, Hind limb/left, times observed/animals (150 mg base/kg/day): 6/1 | Hair sparse, Hind limb/right, times observed/animals (150 mg base/kg/day): 6/1 | Hair sparse, Lumbar region, times observed/animals (150 mg base/kg/day): 12/1 | Hair sparse, Thoracic region, times observed/animals (150 mg base/kg/day): 12/2 | Scabbed area, Face, times observed/animals (150 mg base/kg/day): 0/0 | Scabbed area, Forelimb/right, times observed/animals (150 mg base/kg/day): 0/0 | Scabbed area, Tail, times observed/animals (150 mg base/kg/day): 13/2 | Scabbed area, Thoracic region, times observed/animals (150 mg base/kg/day): 0/0 | Tail missing - portion, times observed/animals (150 mg base/kg/day): 11/1 | NOAEL for fetal developmental toxicity (pregnant rats): 50 mg base/kg/day | NOAEL for maternal toxicity (pregnant rats): 15 mg base/kg/day | mortality (rat, in vivo): No treatment related mortality

Reference: patent US20240277713A1 (Kadmon Corporation, LLC, priority 2022, published 2024)
